Results: patent publication US20160030476A1, “Compositions, Methods And Devices For Promoting Wound Healing And Reducing Infection” (IASIS MOLECULAR SCIENCES, priority 2013, published 2016)

Assays:
Assay in all cases: Therapeutic index (IC50 fibroblasts / MIC90 in broth)
[1] = tested on: multi-drug resistant Pseudomonas aeruginosa (Pseudo); format: cell-based
Protocol: (§1) The OD600 nm levels were monitored until OD600 nm of untreated control reached an OD600 nm of approximately 1.0.
(§2) Growth and Viability assays (5,000 and 10,000 cells/well respectively) were set up with human neonatal fibroblasts in sterile tissue culture treated 96 well plates in DMEM (Invitrogen #11995) supplemented with 10% fetal calf serum (Invitrogen #10437-028) 1% Antibiotic-Antimycotic (Invitrogen #15240-062). (Incubator set at 37 C and 5% CO2).
(§3) 10 μl of prepared MTS reagent (Promega # G5430) was added to the wells and absorbance at 490 nm was read once color has stabilized (1-4 hours).
(§4) The therapeutic index was calculated as the IC50/MIC90.

[2] = tested on: MRSA; format: cell-based, Staphylococcus aureus
Protocol: as §1, §2, §3, §4

[3] = tested on: multi-drug resistant Acinetobacter baumannii (AcBc); format: cell-based
Protocol: as §1, §2, §3, §4

[4] = tested on: multi-drug resistant Klebsiella pneumonia (Kleb); format: cell-based
Protocol: as §1, §2, §3, §4

N[C@@H](CCC(=O)N[C@@H](CS)C(=O)NCC(=O)O)C(=O)O.[Ag] [GSH-Ag, glutathione silver]
Pseudo T.I. [1]: 2.9
MRSA T.I. [2]: 1.5
AcBc T.I. [3]: 2.9
Kleb T.I. [4]: 1.4
